# According to the Kinase Knowledgebase extract (Sharma et al. 2016):
# “And” between values parts separate entries of the source, which are not always exact repeats. Equal values may be shown once.
# Biological target: CDK2 (human) (UniProt P24941)
# Assay: Enzyme Assay
row,Compound,IC50
1,C1=CCN(C2CC2)Cc2cccc(c2)Nc2nccc(n2)-c2cccc(c2)OCC1,≤ 1000 nM
2,CN1CC=CCCOc2cc(F)cc(c2)-c2ccnc(n2)Nc2ccc(OCCN3CCCC3)c(c2)C1,≤ 1000 nM
3,CN1CC=CCC(=O)Nc2cccc(c2)-c2ccnc(n2)Nc2cccc(c2)C1,1000 to 5000 nM
4,CN1CC=CCCOc2cccc(c2)-c2ccnc(n2)Nc2ccc(OCCN3CCCCC3)c(c2)C1,≤ 1000 nM
5,CCN(CC)CCOc1ccc2cc1COCC=CCCOc1cccc(c1)-c1ccnc(n1)N2,> 5000 nM
6,CCS(=O)(=O)CCOc1ccc2cc1CN(C)CC=CCCOc1cccc(c1)-c1ccnc(n1)N2,≤ 1000 nM
7,CN1CC=CCOCC2=CC=C(O2)c2ccnc(n2)Nc2cccc(c2)C1,≤ 1000 nM
8,COc1ccc2cc1COCC=CCOCc1cc(ccc1OCCN1CCCC1)Nc1nccc-2n1,> 5000 nM
9,C1=CCOCc2cc(ccc2OCCN2CCCC2)Nc2nccc(n2)-c2cc(co2)COC1,> 5000 nM
10,CN1CCN(c2ccc3cc2COCC=CCOCc2cccc(c2)-c2ccnc(n2)N3)CC1,> 5000 nM
11,CN1CC=CCCOc2cccc(c2)-c2ccnc(n2)Nc2ccc(OCCN3CCCC3)c(c2)C1,≤ 1000 nM
12,CN1CC=CCCOc2cccc(c2)-c2ccnc(n2)Nc2ccc(OCCn3cncn3)c(c2)C1,≤ 1000 nM
13,CN1Cc2cccc(c2)Nc2nccc(n2)-c2cccc(c2)OCCC2CC2C1 (stereo unspecified),≤ 1000 nM
14,C1=CCOCc2cc(ccc2OCCN2CCCC2)Nc2nccc(n2)-c2csc(c2)COC1,> 5000 nM
15,COc1ccc2cc1COCC=CCOc1cccc(c1)-c1ccnc(n1)N2,≤ 1000 nM and > 5000 nM
16,CCN(CC)CCOc1ccc2cc1CN(C)CC=CCCOc1cccc(c1)-c1ccnc(n1)N2,≤ 1000 nM
17,C1=CCOCc2cc(ccc2OCCN2CCCC2)Nc2nccc(n2)-c2cncc(c2)COC1,1000 to 5000 nM
18,CN1CC=CCCOc2cc(F)cc(c2)-c2ccnc(n2)Nc2cccc(c2)C1,≤ 1000 nM
19,Fc1ccc2cc1COCC=CCOCc1cc(ccc1OCCN1CCCC1)Nc1nccc-2n1,1000 to 5000 nM
20,CN1CC=CCCOc2cccc(c2)-c2ccnc(n2)Nc2cc(N)cc(c2)C1,≤ 1000 nM
21,Cc1cnc2nc1-c1cccc(c1)OCCC=CCN(C)Cc1cccc(c1)N2,≤ 1000 nM

row,Compound,IC50
1,O=C1CCC=CCOCc2cccc(c2)Nc2nccc(n2)-c2cccc(c2)N1,1000 to 5000 nM
2,C1=CCNCc2cccc(c2)Nc2nccc(n2)-c2cccc(c2)OCC1,≤ 1000 nM
3,C1=CCOCc2cc(ccc2N2CCOCC2)Nc2nccc(n2)-c2cccc(c2)COC1,> 5000 nM
4,CN1CC=CCCOc2cccc(c2)-c2ccnc(n2)Nc2ccc(OCCN3CCOCC3)c(c2)C1,≤ 1000 nM
5,CN1CC=CCCOc2cccc(c2)-c2ccnc(n2)Nc2ccc(N3CCOCC3)c(c2)C1,≤ 1000 nM
6,COc1cc2cc(c1OCCN1CCCC1)COCC=CCOCc1cccc(c1)-c1ccnc(n1)N2,1000 to 5000 nM
7,C1=CCOCc2cc(ccc2OCCN2CCCC2)Nc2nccc(n2)C2=CC=C(COC1)S2,> 5000 nM
8,C1=CCOCc2cc(ccc2OCCN2CCCC2)Nc2nccc(n2)C2=CC=C(COC1)O2,> 5000 nM
9,CN1CC=CCCOc2cccc(c2)-c2ccnc(n2)Nc2cc(ccn2)C1,1000 to 5000 nM
10,CN1CC=CCOCC2=CC=C(S2)c2ccnc(n2)Nc2ccc(OCCN3CCCC3)c(c2)C1,≤ 1000 nM
11,CCN(CC)CCOc1ccc2cc1COCC=CCOCc1cccc(c1)-c1ccnc(n1)N2,1000 to 5000 nM
12,c1cc2cc(c1)-c1ccnc(n1)Nc1ccc(OCCN3CCCC3)c(c1)COCC1CC1COC2 (stereo unspecified),1000 to 5000 nM
13,CCN(CC)CCOc1ccc2cc1COCC=CCCOc1cc(ccc1OC)-c1ccnc(n1)N2,> 5000 nM
14,O=C1NCC=CCOCc2cccc(c2)Nc2nccc(n2)-c2cccc1c2,> 5000 nM
15,CCN(CC)CCOc1ccc2cc1COCC=CCCOc1cccc(c1)-c1nc(ncc1C)N2,> 5000 nM
16,C1=CCOCc2cc(ccc2OCCN2CCCC2)Nc2nccc(n2)-c2coc(c2)COC1,> 5000 nM
17,C1=CCOCc2cc(ccc2OCCN2CCCC2)Nc2nccc(n2)-c2cccc(c2)COC1,1000 to 5000 nM
18,CN1CC=CCCOc2cc(ccc2N)-c2ccnc(n2)Nc2cccc(c2)C1,≤ 1000 nM
19,C1=CCN(C2CC2)Cc2cc(ccc2OCCN2CCOCC2)Nc2nccc(n2)-c2cccc(c2)OCC1,≤ 1000 nM
20,Fc1cc2cc(c1)-c1ccnc(n1)Nc1ccc(OCCN3CCCC3)c(c1)COCC=CCCO2,1000 to 5000 nM
